Experimental data as given in EP4715056A1, “BIO-BASED TRANS-ACONITATE, PREPARATION METHOD THEREFOR AND USE THEREOF” (Qingdao Institute of Bioenergy and Bioprocess Technology, …, priority 2023, dated 2024).
Structures can show the parent of a compound that is named as a salt. Where two headings read alike, the source gives them in different places.

Tests used:
[1] = test system: Aspergillus terreus engineered strains; assay type: cell-based; conditions: 96 hours of shake flask fermentation
Procedure: Additional supplementation experiments were performed on differential amino acids and vitamins between high-yield and low-yield corn steep liquor powders. Based on the high-yield corn steep liquor powder medium, fermentation verification was performed by adding differential amino acid components and vitamin components separately. Each group was set up with three parallel replicates. After 96 hours of shake flask fermentation, the supernatant of the fermentation broth was collected for quantitative analysis using HPLC detection.

[2] = test system: Aspergillus terreus engineered strains; assay type: cell-based; conditions: 30 L fermenter
Procedure: Meanwhile, the medium without added amino acids was used as a control to compare the fermentation yields. […] The primary and secondary seed media were: 150 g/L glucose monohydrate, 4 g/L ammonium sulfate, 2 g/L corn steep liquor powder, 0.4 g/L magnesium sulfate heptahydrate, 0.06 g/L ferrous sulfate heptahydrate, 0.01 g/L diammonium hydrogen phosphate, 40 mg/L zinc sulfate, 40 mg/L copper sulfate, and 0.5 g/L sodium chloride; no L-Trp or L-Met was added to the primary and secondary media. The tertiary fermentation medium was the same as the secondary seed medium, but L-Trp or L-Met was added. The control parameters of the 30 L fermenter were as follows: 300 to 480 rpm, dissolved oxygen (DO) level maintained at 25% to 29%, aeration rate at 20 L/min; DO control was linked during agitation. The control parameters of the 100 L fermenter were as follows: 250 to 280 rpm, DO controlled from 25 to 30% during agitation linkage, and aeration rate controlled f […].

[3] = test system: Aspergillus niger engineered strains; conditions: shake flask, addition amount 0.12 g/L
Procedure: Nutritional factor optimization experiments were performed on the trans-Aconitic acid-producing Aspergillus niger engineered strains constructed in Example 1. Amino acid components were added for fermentation verification using the high-yield corn steep liquor powder medium as the basis.

[4] = test system: Aspergillus niger engineered strains; conditions: 30 L fermenter, after 132 h of fermentation
Procedure: Fermentation was performed in a 30 L fermenter using the medium added with L-methionine. The control parameters were as follows: 300 to 480 rpm, DO level maintained at 25 to 29%, and aeration rate controlled at 20 L/min.

[5] = Hardness (Shore hardness tester, GB/T 531-2008); assay type: physicochemical; conditions: composite: 100 parts PVC resin (K value 60, polydispersity index 4), 30 parts plasticizer, 2 parts oxidized polyethylene wax, 5 parts octyltin maleate
[6] = Compatibility (water value method); assay type: physicochemical; conditions: water value of the plasticizer, Table 9
[7] = Volatility loss rate (activated carbon method, HG/T 4458-2012); assay type: physicochemical; conditions: PVC composite with 30 parts plasticizer; 70°C for 24 h
Procedure: (§1) The above plasticizer is the mixed aconitates prepared in Example 37, and composite materials are prepared according to the above weight ratio and preparation method respectively. At the same time, dioctyl phthalate, tributyl citrate, tributyl aconitate and triisooctyl aconitate are respectively selected as plasticizers to prepare composite materials according to the above weight ratio and preparation method. The test method is the same as that in Test 2 except for the following: • 1. Volatility loss rate: tests were performed in accordance with HG/T 4458-2012 Plastics - Determination of Plasticizer Loss by Activated Carbon Method at a test temperature of 70°C for 24 h. • 2. Water extraction rate: tests were performed in accordance with the standard ISO 175-2011 Test Method for Determination of Immersion Effects of Plastics in Liquid Chemicals at room temperature for 72 h, with deionized water as the extraction solvent. • 3. Ethanol extraction rate: tests were performed in accordance with the standard ISO 175-2011 Test Method for Determination of Immersion Effects of Plastics in Liquid Chemicals at room temperature for 72 h, with ethanol as the extraction solvent. • 4. Petroleum ether extraction rate: tests were performed in accordance with the standard ISO 175-2011 Test Method for Determination of Immersion Effects of Plastics in Liquid Chemicals at room temperature for 72 h, with petroleum ether as the extraction solvent. • 5. Migration rate: tests were performed in accordance with HG/T 4458-2012 Determination of Plasticizer Migration in Plastics at a test temperature of 50°C for 48 h. The materials of absorbent sheets are polyethylene (PE) without additives and standard natural rubber (NR).

[8] = Water extraction rate (ISO 175-2011); assay type: physicochemical; conditions: PVC composite with 30 parts plasticizer; room temperature, 72 h, deionized water
Procedure: as §1

[9] = Ethanol extraction rate (ISO 175-2011); assay type: physicochemical; conditions: PVC composite with 30 parts plasticizer, room temperature, 72 h
Procedure: as §1

[10] = Petroleum ether extraction rate (ISO 175-2011); assay type: physicochemical; conditions: PVC composite with 30 parts plasticizer, room temperature, 72 h
Procedure: as §1

[11] = Plasticizer migration rate to PE (HG/T 4458-2012); assay type: physicochemical; conditions: PVC composite with 30 parts plasticizer; 50°C for 48 h
Procedure: as §1

[12] = Plasticizer migration rate to NR (HG/T 4458-2012); assay type: physicochemical; conditions: PVC composite with 30 parts plasticizer; 50°C for 48 h
Procedure: as §1

[13] = Tensile properties (GB/T 1040-2006): tensile modulus at 100%, elongation at break, elastic modulus; assay type: physicochemical; conditions: PVC composite with 30 parts plasticizer, Table 9
[14] = Glass transition temperature (dynamic mechanical analyzer); assay type: physicochemical; conditions: PVC composite with 30 parts plasticizer, Table 10

Row | Compound | increase of the yield of trans-Aconitic acid ([1]; addition of 0.115 g/L) | final fermentation yield of trans-Aconitic acid ([2]; 0.115 g/L added (26 g/L without adding amino acid)) | yield of the recombinant engineered strains [3] | TAA yield [4] | increase of the yield of trans-Aconitic acid ([1]; addition of 0.099 g/L) | increase of the yield of trans-Aconitic acid ([1]; addition of 0.2 g/L) | yield of trans-Aconitic acid ([2]; 0.099 g/L added, at 60 h (26 g/L without adding amino acid)) | Hardness/Shore D [5] | Compatibility [6] | Volatility loss rate [7] | Water extraction rate [8] | Ethanol extraction rate [9] | Petroleum ether extraction rate [10] | Migration rate to PE [11] | Migration rate to NR [12] | Elastic modulus [13] | Elongation at break [13] | Tensile modulus at 100% [13] | Tg [14]
1 | CSCC[C@H](N)C(=O)O [L-methionine] | 86.5% | 65 g/L | 31.76 g/L | 60 g/L |  |  |  |  |  |  |  |  |  |  |  |  |  |  | 
2 | N[C@@H](Cc1c[nH]c2ccccc12)C(=O)O [L-tryptophan] |  |  |  |  | 46.2% | 20.7% | 41.95 g/L |  |  |  |  |  |  |  |  |  |  |  | 
3 | CCCCOC(=O)CC(O)(CC(=O)OCCCC)C(=O)OCCCC [Tributyl citrate, tributyl citrate] |  |  |  |  |  |  |  | 77 Shore D | 14.3 mL | 3.87% | 1.16% | 4.96% | 8.91% | 2.12% | 2.71% | 426.5 MPa | 146.3% | 13.6 MPa | 38.3 °C
4 | CC(C)CCCCCOC(=O)C=C(CC(=O)OCCCCCC(C)C)C(=O)OCCCCCC(C)C [Triisooctyl aconitate, triisooctyl aconitate] |  |  |  |  |  |  |  | 71 Shore D | 10.9 mL | 0.38% | 0.14% | 14.52% | 16.44% | 0.13% | 0.18% | 397.1 MPa | 156.3% | 16.1 MPa | 43.5 °C
